In one assay the test system is MRP8/MRP14 mRNA. The experiment in a line: Expression of MRP8/MRP14 messenger RNA in reconstructed epidermides. The settings on record: treatment for 7 days. The assay is classed as cell-based. The source says:
(§1) Ecdysterone was applied to the medium of reconstructed epidermides under the same conditions as those of Example 1.
(§2) After treatment for 7 days, the epidermides were harvested.

Assay [1] relates to normal human keratinocytes. The experiment in a line: Cell cycle analysis (DNA content by flow cytometry). The note with it: as a function of the amount of ecdysterone in the keratinocyte culture medium. The assay is classed as cell-based. The procedure: The cell cycle analysis consists in studying the DNA content of a cell population by flow cytometry. These studies were performed on normal human keratinocytes cultured as a monolayer in a defined medium (KGM-Clonetics).
The keratinocytes are derived from a mammoplasty. These keratinocytes were isolated and then cultured in KGM medium supplemented with growth factors (EGF: 10 ng/ml, 0.4 μg/ml, insulin 5 μg/ml, BPE (Bovine Pituitary Extract) 4 mL).
The cells are treated with ecdysterone for 8 hours to 48 hours. There is no EGF in the culture medium during the treatment with ecdysterone.
Ecdysterone was tested at the following concentrations: 1 μg/ml, 0.1 μg/ml and 0.01 μg/ml.
The protocol followed for the cell cycle analysis in flow cytometry is described in the following publication: Staiano-Coico L., Higgins P. J., Darzynkiewicz Z. et al; 1986 Human keratinocyte culture. Identification and stagind of epidermal cell subpopulations. J. Clin. Invest. 77, 396-404. The analysis was performed using a Facs Calibur 3C Trieur flow cytometer from the company Becton-Dickinson.

Another assay relates to psoriasin mRNA. The experiment in a line: Expression of psoriasin messenger RNA in reconstructed epidermides. The class given is cell-based. The note with it: treatment for 7 days.
Description: as §1, §2

The subject of assay [2] is keratinocytes derived from a mammoplasty. The assay is described as follows: Measurement of cell multiplication of keratinocytes (number of cells per flask). The class given is cell-based, human. The procedure: The keratinocytes are derived from a mammoplasty. These keratinocytes were isolated and then cultured in KGM medium (Clonetics) supplemented with growth factor (EGF (Epidermal Growth Factor): 10 ng/ml, 0.4 μg/ml, insulin 5 μg/ml, BPE (Bovine Pituitary Extract) 4 ml/L). The cells are treated with ecdysterone for 8 hours to 48 hours. There is no EGF in the culture medium during the treatment with ecdysterone. […]

The test system of another assay is MRP8 and MRP14. The experiment in a line: Protein markers MRP8 and MRP14 by immunofluorescence on histological slices. The note with it: reconstructed epidermides, conditions of Example 1. The assay is classed as cell-based. As to the method: Ecdysterone was added to the medium of reconstructed epidermides under the same conditions as those of Example 1.
The proteins MRP8 and MRP14 are proteins that are strongly expressed in reconstructed skin, in psoriatic skin and by keratinocytes that are hyperproliferative but that have, however, maintained the capacity to differentiate. The analysis of the protein markers MRP8 and MRP14 was performed by immunofluorescence on histological slices.

The test system of assay [3] is reconstructed epidermides. The assay is described as follows: Measurement of the thickness of the epidermis (histology, HES staining, image analysis). The class given is cell-based. The note with it: ecdysterone in culture medium of reconstructed epidermes, 7 days. As to the method: Reconstructed epidermides were prepared according to the technique of Asselineau et al., 1985 (Asselineau D, Bernard B A, Bailly C. & Darmon M: Epidermal morphogenesis and induction of 67 kD Keratin polypeptide by culture at the air liquid interface Exp Cell Res 159: 536-539).
From the first day of exposure to the air/liquid interface, the epidermides were cultured in the presence of ecdysterone in the culture medium (1 to 1000 μg/ml). The epidermes were cultured for 7 days. The treatment was renewed every 48 hours by changing the culture medium. After treatment for 7 days, the epidermes were harvested. The histological analysis is performed after staining with HES (hematoxylin eosin saffron).
Epidermal thickness measurements were performed on histological slices. To do this, 10 measurements are taken on a field. For each sample, 5 fields are counted. These measurements are performed using a Leica Q600S image analysis system with an ×10 objective lens. The mean thickness obtained for each sample corresponds to 50 measurements taken.

This note sets out measurements from patent US20050137176A1, “Use of a steroidal or non-steroidal EcR receptor ligand in a cosmetic or dermatological preparation for maintaining cutaneous homeostasis” (L'OREAL, priority 2003, published 2005).

SMILES strings stand for the structures.

For `CC(C)(O)CC[C@@H](O)[C@](C)(O)[C@H]1CC[C@@]2(O)C3=CC(=O)[C@@H]4C[C@@H](O)[C@@H](O)C[C@]4(C)[C@H]3CC[C@]12C` [Ecdysterone, (2b, 3b, 5b,22R)-2,3,14,20,22,25-hexahydroxycholest-7-en-6-one], in the assay on MRP8/MRP14 mRNA, the “Reduction of the expression of MRP8/MRP14 mRNA (factor)” value turned out to be 1.7. Also, the “Phases of the cell cycle (cell population between G0/G1 and G2/M)” value in assay [1] was “change in the cell population between the phases G0/G1 and G2/M”. Besides, in the assay on psoriasin mRNA, the “Reduction of the expression of psoriasin mRNA (factor)” value is 3.5. Further, the No of cells/flask in assay [2] (0.001 μg/ml, 16 hours, second series) is 3.6 × 10^5 cells/flask; in assay [2] (0.001 μg/ml, 24 hours, second series), 3.6 × 10^5 cells/flask; in assay [2] (0.001 μg/ml, 48 hours, second series), 1.6e+06 cells/flask; in assay [2] (0.01 μg/ml, 16 hours, first series), 0.8 × 10^6 cells/flask; in assay [2] (0.01 μg/ml, 16 hours, second series), 2.5 × 10^5 cells/flask; in assay [2] (0.01 μg/ml, 24 hours, first series), 1.0 × 10^6 cells/flask. Also, the No of cells/flask is 5.7 × 10^5 cells/flask in assay [2] (0.01 μg/ml, 24 hours, second series); 1.6 × 10^6 cells/flask in assay [2] (0.01 μg/ml, 48 hours, second series); 0.8 × 10^6 cells/flask in assay [2] (0.1 μg/ml, 8 hours, first series); 1.0 × 10^6 cells/flask in assay [2] (0.1 μg/ml, 16 hours, first series); 3.6 × 10^5 cells/flask in assay [2] (0.1 μg/ml, 16 hours, second series); 1.1 × 10^6 cells/flask in assay [2] (0.1 μg/ml, 24 hours, first series). Moreover, the No of cells/flask in assay [2] (0.1 μg/ml, 24 hours, second series) was 5.2 × 10^5 cells/flask; in assay [2] (0.1 μg/ml, 48 hours, second series), 1.5 × 10^6 cells/flask; in assay [2] (1 μg/ml, 8 hours, first series), 0.7 × 10^6 cells/flask; in assay [2] (1 μg/ml, 16 hours, first series), 0.5 × 10^6 cells/flask; in assay [2] (1 μg/ml, 24 hours, first series), 1.1 × 10^6 cells/flask. Besides, the “Number of cells relative to the control cells” value in assay [2] (after treatment for 48 hours) is recorded as “no significant increase in the number of cells”. Moreover, the “Expression of the proteins MRP8 and MRP14 on histological slices” value in the assay on MRP8 and MRP14 is “restricts the expression of MRP8 and MRP14 to the upper layers of the epidermis”. In addition, the “Parakeratosis or reduction in the thickness of the horny layer” value in assay [3] is given as “not accompanied by parakeratosis”. Moreover, in assay [3], the “Thickness of the epidermis at the level of the live layers” value is “increase in the thickness of the epidermis at the level of the live layers”.
